# Target: T1, BumS (WT BumS-Myc-6XHis) (Campylobacter jejuni, UniProt Z9AJU0DEG1)
# T1 construct: gene CJJ81176_1484; second to penultimate codon, C-terminal Myc-6XHis tag kept (pBAD/Myc-HisA, pNR251), expressed in E. coli TOP10; cytoplasmic, N-terminal PAS domain (about residues 1-120)
# T1 sequence (Z9AJU0DEG1 2-403): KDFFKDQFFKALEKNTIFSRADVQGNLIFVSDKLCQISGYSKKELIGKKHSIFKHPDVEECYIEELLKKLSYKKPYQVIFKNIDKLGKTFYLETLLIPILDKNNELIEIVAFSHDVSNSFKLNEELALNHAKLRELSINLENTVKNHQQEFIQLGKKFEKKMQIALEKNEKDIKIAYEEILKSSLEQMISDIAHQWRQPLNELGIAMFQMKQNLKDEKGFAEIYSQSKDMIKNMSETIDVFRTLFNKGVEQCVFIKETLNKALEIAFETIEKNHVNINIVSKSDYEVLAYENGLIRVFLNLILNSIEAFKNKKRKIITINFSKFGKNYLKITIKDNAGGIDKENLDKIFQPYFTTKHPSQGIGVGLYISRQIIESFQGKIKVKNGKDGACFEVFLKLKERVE
# Assay: CD thermal melt at […] nm
# Assay type: binding
# Conditions: […]; […] HEPES, […] NaSO4, […] glycerol; […]-95 °C
smiles,measurement,value
CC(C)C(=O)O [isobutyrate],"Tm,app",isobutyrate and isovalerate had a net destabilizing effect on the thermostability of BumS

# — PMC11796366 (mBio, 2024)
